Laboratory results taken from ChEMBL document CHEMBL4433268, “Rational design of a SHP-2 targeted, fluorogenic peptide substrate” (Bioorg Med Chem Lett, 2019).
Calls of active or inactive are those of the source. The rule behind the calls is not given here. Non-standard residues stand in square brackets, D forms with d. Residues, ends and D or L forms follow the SMILES beside them. Ala(7-OPO3H2-coumarin-4-yl) = N[C@@H](Cc1cc(=O)oc2cc(OP(=O)(O)O)ccc12)C(=O)O

Experiments:
[1] = biological target: T1, Tyrosine-protein phosphatase non-receptor type 22 (Homo sapiens) (UniProt Q9Y2R2); assay: Substrate activity at LYP (unknown origin) expressed in Escherichia coli BL21 (DE3) incubated for 60 mins by fluorescence based assay
T1 sequence (whole entry): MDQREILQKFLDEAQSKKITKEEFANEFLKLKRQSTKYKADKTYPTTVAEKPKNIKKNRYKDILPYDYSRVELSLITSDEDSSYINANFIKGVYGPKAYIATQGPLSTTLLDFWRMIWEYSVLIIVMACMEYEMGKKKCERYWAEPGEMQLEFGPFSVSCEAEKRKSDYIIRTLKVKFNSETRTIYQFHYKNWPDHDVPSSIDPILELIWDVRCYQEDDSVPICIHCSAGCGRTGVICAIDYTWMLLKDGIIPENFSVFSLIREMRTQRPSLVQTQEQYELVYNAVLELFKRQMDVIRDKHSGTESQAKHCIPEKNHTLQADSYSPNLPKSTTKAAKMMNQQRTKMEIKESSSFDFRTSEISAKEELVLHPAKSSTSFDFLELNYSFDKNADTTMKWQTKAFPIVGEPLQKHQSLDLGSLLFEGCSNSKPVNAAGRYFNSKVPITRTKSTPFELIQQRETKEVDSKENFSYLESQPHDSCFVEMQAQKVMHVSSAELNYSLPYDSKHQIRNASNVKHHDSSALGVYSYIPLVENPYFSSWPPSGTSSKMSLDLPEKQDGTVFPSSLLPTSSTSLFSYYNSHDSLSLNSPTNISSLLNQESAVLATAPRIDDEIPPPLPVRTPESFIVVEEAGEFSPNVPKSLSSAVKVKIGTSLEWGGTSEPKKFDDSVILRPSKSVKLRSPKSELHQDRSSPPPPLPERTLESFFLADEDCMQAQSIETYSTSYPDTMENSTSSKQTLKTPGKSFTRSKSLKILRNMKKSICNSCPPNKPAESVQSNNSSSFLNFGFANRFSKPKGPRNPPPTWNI

[2] = biological target: T2, Tyrosine-protein phosphatase non-receptor type 11 (Homo sapiens) (UniProt Q06124); assay: Substrate activity at SHP2 (unknown origin) expressed in Escherichia coli BL21 (DE3) incubated for 60 mins by fluorescence based assay
T2 sequence (whole entry): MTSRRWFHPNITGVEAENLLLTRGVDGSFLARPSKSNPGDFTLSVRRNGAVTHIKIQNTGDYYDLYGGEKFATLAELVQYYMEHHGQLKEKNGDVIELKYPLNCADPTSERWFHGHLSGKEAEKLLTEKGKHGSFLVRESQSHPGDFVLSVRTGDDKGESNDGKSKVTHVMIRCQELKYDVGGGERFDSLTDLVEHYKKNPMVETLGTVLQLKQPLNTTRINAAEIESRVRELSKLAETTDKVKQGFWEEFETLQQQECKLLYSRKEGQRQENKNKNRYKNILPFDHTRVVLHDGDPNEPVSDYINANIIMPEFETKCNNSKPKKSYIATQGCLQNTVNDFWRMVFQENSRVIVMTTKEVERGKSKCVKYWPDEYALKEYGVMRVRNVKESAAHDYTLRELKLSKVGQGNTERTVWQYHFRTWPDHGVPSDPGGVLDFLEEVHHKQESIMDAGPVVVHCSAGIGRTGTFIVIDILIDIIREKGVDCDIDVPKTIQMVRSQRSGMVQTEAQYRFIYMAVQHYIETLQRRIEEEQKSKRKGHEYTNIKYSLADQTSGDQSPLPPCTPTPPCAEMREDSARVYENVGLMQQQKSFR

[3] = biological target: T3, Tyrosine-protein phosphatase non-receptor type 7 (Homo sapiens) (UniProt P35236); assay: Substrate activity at HEPTP (unknown origin) expressed in Escherichia coli BL21 (DE3) incubated for 60 mins by fluorescence based assay
T3 sequence (whole entry): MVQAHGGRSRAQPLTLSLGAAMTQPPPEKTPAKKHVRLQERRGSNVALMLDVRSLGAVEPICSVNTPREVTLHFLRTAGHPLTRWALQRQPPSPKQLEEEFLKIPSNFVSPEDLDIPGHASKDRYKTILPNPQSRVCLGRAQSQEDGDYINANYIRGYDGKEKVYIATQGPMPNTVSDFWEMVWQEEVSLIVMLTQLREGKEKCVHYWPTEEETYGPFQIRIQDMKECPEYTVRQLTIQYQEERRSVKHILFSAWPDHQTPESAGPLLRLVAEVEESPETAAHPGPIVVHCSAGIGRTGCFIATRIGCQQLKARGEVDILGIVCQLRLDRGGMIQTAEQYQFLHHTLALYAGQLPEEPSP

[4] = biological target: T4, Tyrosine-protein phosphatase non-receptor type 4 (Homo sapiens) (UniProt P29074); assay: Substrate activity at MEG1 (unknown origin) expressed in Escherichia coli BL21 (DE3) incubated for 60 mins by fluorescence based assay
T4 sequence (whole entry): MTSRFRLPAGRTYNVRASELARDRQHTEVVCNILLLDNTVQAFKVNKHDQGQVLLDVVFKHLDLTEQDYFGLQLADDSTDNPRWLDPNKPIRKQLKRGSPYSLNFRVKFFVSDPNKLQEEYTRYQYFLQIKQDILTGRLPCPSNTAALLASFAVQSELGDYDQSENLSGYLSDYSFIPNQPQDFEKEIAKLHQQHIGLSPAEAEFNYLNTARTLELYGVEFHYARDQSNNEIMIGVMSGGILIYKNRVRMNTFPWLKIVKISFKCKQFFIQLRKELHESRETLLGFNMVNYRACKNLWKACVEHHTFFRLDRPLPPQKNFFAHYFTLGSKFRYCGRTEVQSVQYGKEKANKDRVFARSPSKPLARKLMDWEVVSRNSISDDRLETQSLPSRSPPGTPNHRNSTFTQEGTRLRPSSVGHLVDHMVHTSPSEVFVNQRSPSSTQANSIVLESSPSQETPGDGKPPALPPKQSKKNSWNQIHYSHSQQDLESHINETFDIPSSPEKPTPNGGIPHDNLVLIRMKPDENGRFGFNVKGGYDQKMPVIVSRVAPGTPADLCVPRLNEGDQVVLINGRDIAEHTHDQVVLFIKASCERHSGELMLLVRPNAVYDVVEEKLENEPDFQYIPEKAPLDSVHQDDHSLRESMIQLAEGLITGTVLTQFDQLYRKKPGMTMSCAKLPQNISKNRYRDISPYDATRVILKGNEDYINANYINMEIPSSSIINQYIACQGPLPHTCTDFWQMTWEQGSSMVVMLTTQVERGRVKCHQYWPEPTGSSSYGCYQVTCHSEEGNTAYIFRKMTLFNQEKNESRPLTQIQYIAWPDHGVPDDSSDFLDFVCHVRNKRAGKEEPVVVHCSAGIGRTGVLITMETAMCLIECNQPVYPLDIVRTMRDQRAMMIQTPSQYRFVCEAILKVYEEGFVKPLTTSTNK

[5] = biological target: Receptor-type tyrosine-protein phosphatase mu (Homo sapiens) (UniProt P28827); assay: Substrate activity at PTPmu (unknown origin) expressed in Escherichia coli BL21 (DE3) incubated for 60 mins by fluorescence based assay
Sequence of Receptor-type tyrosine-protein phosphatase mu (Homo sapiens) (P28827 whole entry): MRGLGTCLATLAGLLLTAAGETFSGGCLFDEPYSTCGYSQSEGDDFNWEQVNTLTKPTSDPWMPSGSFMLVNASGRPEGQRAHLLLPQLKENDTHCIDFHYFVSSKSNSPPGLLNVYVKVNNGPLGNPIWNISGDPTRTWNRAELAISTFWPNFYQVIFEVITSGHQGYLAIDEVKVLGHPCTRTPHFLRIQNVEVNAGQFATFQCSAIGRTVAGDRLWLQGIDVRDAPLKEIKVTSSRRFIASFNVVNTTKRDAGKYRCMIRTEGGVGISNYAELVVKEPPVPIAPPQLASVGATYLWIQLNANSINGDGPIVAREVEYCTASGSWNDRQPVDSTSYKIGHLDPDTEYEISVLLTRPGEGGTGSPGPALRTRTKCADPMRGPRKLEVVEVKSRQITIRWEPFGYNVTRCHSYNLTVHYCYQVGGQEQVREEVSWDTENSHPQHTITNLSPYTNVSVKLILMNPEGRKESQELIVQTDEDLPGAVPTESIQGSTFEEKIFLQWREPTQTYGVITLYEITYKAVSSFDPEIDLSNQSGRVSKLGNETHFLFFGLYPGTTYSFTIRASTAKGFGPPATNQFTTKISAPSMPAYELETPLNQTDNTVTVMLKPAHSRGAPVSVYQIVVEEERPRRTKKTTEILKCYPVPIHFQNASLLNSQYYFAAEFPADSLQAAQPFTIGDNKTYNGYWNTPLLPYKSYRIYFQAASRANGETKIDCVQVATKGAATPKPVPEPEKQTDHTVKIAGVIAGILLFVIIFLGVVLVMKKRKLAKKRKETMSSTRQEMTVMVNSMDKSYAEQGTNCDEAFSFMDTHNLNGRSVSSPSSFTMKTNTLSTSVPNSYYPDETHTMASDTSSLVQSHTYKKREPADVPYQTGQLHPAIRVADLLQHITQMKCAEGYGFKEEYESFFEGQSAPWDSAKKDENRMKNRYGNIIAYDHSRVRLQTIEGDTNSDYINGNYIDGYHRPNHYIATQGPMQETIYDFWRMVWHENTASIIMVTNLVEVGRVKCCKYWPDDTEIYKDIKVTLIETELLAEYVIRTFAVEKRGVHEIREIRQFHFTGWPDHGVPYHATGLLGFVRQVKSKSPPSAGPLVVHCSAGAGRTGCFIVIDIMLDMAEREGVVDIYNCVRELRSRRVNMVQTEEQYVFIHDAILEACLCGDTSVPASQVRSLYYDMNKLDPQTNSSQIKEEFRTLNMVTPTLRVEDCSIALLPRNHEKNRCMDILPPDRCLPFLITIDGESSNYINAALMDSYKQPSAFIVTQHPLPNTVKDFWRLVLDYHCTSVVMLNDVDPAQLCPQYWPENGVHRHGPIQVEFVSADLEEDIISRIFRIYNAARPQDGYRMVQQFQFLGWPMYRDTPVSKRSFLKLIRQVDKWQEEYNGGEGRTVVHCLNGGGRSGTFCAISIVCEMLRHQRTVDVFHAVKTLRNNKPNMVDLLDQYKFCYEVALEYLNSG

| Activity [1] | Activity [2] | Activity [3] | Activity [4] | Activity [5] | Compound |
| --- | --- | --- | --- | --- | --- |
| Active | Active | inactive | inactive | inactive | CC[C@H](C)[C@H](NC(=O)[C@@H](NC(=O)[C@H](CC(=O)O)NC(=O)[C@H](CC(=O)O)NC(C)=O)[C@@H](C)O)C(=O)N[C@@H](Cc1cc(=O)oc2cc(OP(=O)(O)O)ccc12)C(=O)N[C@@H](CC(=O)O)C(=O)N[C@H](C(=O)N[C@@H](CC(C)C)C(=O)N[C@@H](CC(=O)O)C(N)=O)C(C)C (Ac-DDTI[Ala(7-OPO3H2-coumarin-4-yl)]DVLD-NH2) |
|  | Active |  |  | inactive | CC[C@H](C)[C@H](NC(=O)[C@@H](NC(=O)[C@H](CC(=O)O)NC(=O)[C@H](CC(=O)O)NC(C)=O)[C@@H](C)O)C(=O)N[C@@H](Cc1cc(=O)oc2cc(OP(=O)(O)O)ccc12)C(=O)N[C@H](C(=O)N[C@H](C(=O)N[C@@H](CC(C)C)C(=O)N[C@@H](CC(=O)O)C(N)=O)C(C)C)[C@@H](C)O (Ac-DDTI[Ala(7-OPO3H2-coumarin-4-yl)]TVLD-NH2) |
| Active | Active | Active | Active | inactive | CC[C@H](C)[C@H](NC(=O)[C@@H](NC(=O)[C@H](CC(=O)O)NC(=O)[C@H](CC(=O)O)NC(C)=O)[C@@H](C)O)C(=O)N[C@@H](Cc1cc(=O)oc2cc(OP(=O)(O)O)ccc12)C(=O)N[C@H](C(=O)N[C@H](C(=O)N[C@@H](CC(C)C)C(=O)N[C@@H](CC(=O)O)C(N)=O)C(C)C)C(C)C (Ac-DDTI[Ala(7-OPO3H2-coumarin-4-yl)]VVLD-NH2) |
|  | Active |  |  | inactive | CC[C@H](C)[C@H](NC(=O)[C@@H](NC(=O)[C@H](CO)NC(=O)[C@H](CC(=O)O)NC(C)=O)[C@@H](C)O)C(=O)N[C@@H](Cc1cc(=O)oc2cc(OP(=O)(O)O)ccc12)C(=O)N[C@@H](CC(=O)O)C(=O)N[C@H](C(=O)N[C@@H](CC(C)C)C(=O)N[C@@H](CC(=O)O)C(N)=O)C(C)C (Ac-DSTI[Ala(7-OPO3H2-coumarin-4-yl)]DVLD-NH2) |

Continued, compound first:

| Compound | Activity [1] | Activity [2] | Activity [3] | Activity [4] | Activity [5] |
| --- | --- | --- | --- | --- | --- |
| CC[C@H](C)[C@H](NC(=O)[C@@H](NC(=O)[C@@H]1CCCN1C(=O)[C@H](CC(=O)O)NC(C)=O)[C@@H](C)O)C(=O)N[C@@H](Cc1cc(=O)oc2cc(OP(=O)(O)O)ccc12)C(=O)N1CCC[C@H]1C(=O)N[C@H](C(=O)N[C@@H](CC(C)C)C(=O)N[C@@H](CC(=O)O)C(N)=O)C(C)C (Ac-DPTI[Ala(7-OPO3H2-coumarin-4-yl)]PVLD-NH2) |  | Active |  |  | inactive |
| CC[C@H](C)[C@H](NC(=O)[C@@H](NC(=O)[C@H](CO)NC(=O)[C@H](CC(=O)O)NC(C)=O)[C@@H](C)O)C(=O)N[C@@H](Cc1cc(=O)oc2cc(OP(=O)(O)O)ccc12)C(=O)N[C@H](C(=O)N[C@H](C(=O)N[C@@H](CC(C)C)C(=O)N[C@@H](CC(=O)O)C(N)=O)C(C)C)[C@@H](C)O (Ac-DSTI[Ala(7-OPO3H2-coumarin-4-yl)]TVLD-NH2) |  | Active |  |  | inactive |
| CC[C@H](C)[C@H](NC(=O)[C@@H](NC(=O)[C@H](CO)NC(=O)[C@H](CC(=O)O)NC(C)=O)[C@@H](C)O)C(=O)N[C@@H](Cc1cc(=O)oc2cc(OP(=O)(O)O)ccc12)C(=O)N[C@H](C(=O)N[C@H](C(=O)N[C@@H](CC(C)C)C(=O)N[C@@H](CC(=O)O)C(N)=O)C(C)C)C(C)C (Ac-DSTI[Ala(7-OPO3H2-coumarin-4-yl)]VVLD-NH2) |  | Active |  |  | inactive |
